Source: ChEMBL document CHEMBL5236614, “Discovery of Potent and Selective Dual Leucine Zipper Kinase/Leucine Zipper-Bearing Kinase Inhibitors with Neuroprotective Properties in In Vitro and In Vivo Models of Amyotrophic Lateral Sclerosis” (J Med Chem, 2022)

Experiment: Microsomal stability in human liver microsomes assessed as intrinsic clearance
Assay type: ADME, Microsome
Settings: read-out: CLH

Structure (SMILES) | CLint scaled [mL/min/kg]
Nc1ncc(-c2cc(C3CC3)nc(N3C[C@@H]4C[C@H]3CO4)c2)nc1OC(F)F | 15.8
Nc1ncc(-c2cc(C3CC3)cc(N3C[C@@H]4C[C@H]3CO4)n2)nc1OC(F)F | 15.9
